Source: ChEMBL document CHEMBL1201862, “PubChem BioAssay data set” (2004)
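Protocol summary: plate cells (96-well), add compound at 5 concentrations, incubate 48 h, interpolate endpoints linearly. The concentration for 50% growth inhibition is given as GI50.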 Activity calls are given as the source filed them. Rule as the data show it: active = GI50 up to about 1.1 µM and inactive = higher.

How the values were obtained:
Experiment in all cases: NCI-60 cell line screen, 48 h
A549 = tested on: A549
EKVX = tested on: EKVX
HCT-15 = tested on: HCT-15
HL-60 = tested on: HL-60
HOP-62 = tested on: HOP-62
KM12 = tested on: KM12
NCI-H226 = tested on: NCI-H226
OVCAR-3 = tested on: OVCAR-3
OVCAR-5 = tested on: OVCAR-5
OVCAR-8 = tested on: OVCAR-8
SF-268 = tested on: SF-268
SF-295 = tested on: SF-295
SK-MEL-28 = tested on: SK-MEL-28
SK-OV-3 = tested on: SK-OV-3
SW-620 = tested on: SW-620
U-251 = tested on: U-251
UACC-62 = tested on: UACC-62
UO-31 = tested on: UO-31
MCF7 = tested on: MCF7
MDA-MB-435 = tested on: MDA-MB-435

SMILES	GI50 (A549)	GI50 (EKVX)	GI50 (HCT-15)	GI50 (HL-60)	GI50 (HOP-62)	GI50 (KM12)	GI50 (NCI-H226)	GI50 (OVCAR-3)	GI50 (OVCAR-5)	GI50 (OVCAR-8)	GI50 (SF-268)	GI50 (SF-295)	GI50 (SK-MEL-28)	GI50 (SK-OV-3)	GI50 (SW-620)	GI50 (U-251)	GI50 (UACC-62)	GI50 (UO-31)	GI50 (MCF7)	GI50 (MDA-MB-435)
Cn1c2c([N+](=O)[O-])[se]nc2c(=O)n1-c1ccc([N+](=O)[O-])cc1	7.24 µM (inactive)	2.38 µM (inactive)	1.25 µM	0.615 µM (active)	3.97 µM (inactive)	4.51 µM (inactive)	2.96 µM (inactive)	1.73 µM (inactive)	2.12 µM (inactive)	1.02 µM (active)	2.21 µM (inactive)	3.13 µM (inactive)	2.11 µM (inactive)	2.72 µM (inactive)	0.357 µM (active)	2.51 µM (inactive)	1.6 µM (inactive)	1.91 µM (inactive)		
N=c1c2ccccc2nc2oc3cc([N+](=O)[O-])ccc3n12	40.1 µM (inactive)	2.21 µM (inactive)	> 100 µM		18.1 µM (inactive)	> 100 µM (inactive)	15 µM (inactive)	25.7 µM (inactive)	28.2 µM (inactive)	20.9 µM (inactive)	27.4 µM (inactive)	19.3 µM (inactive)	74 µM (inactive)	17.9 µM (inactive)	61.1 µM (inactive)	15.5 µM (inactive)	47.3 µM (inactive)	16.6 µM (inactive)	> 100 µM (inactive)	> 100 µM (inactive)
C=C1CCCC(C)(C)[C@@H]1CC/C(C)=C/Cn1c2cccc(=O)c-2nc2ccccc21	1.72 µM (inactive)	4.4 µM (inactive)	1.18 µM	0.127 µM (active)	3.48 µM (inactive)	2.81 µM (inactive)	3.99 µM (inactive)	3.18 µM (inactive)	3.25 µM (inactive)	1.55 µM (inactive)	1.39 µM (inactive)	1.45 µM (inactive)	4.63 µM (inactive)	4.15 µM (inactive)	1.61 µM (inactive)	1.53 µM (inactive)	0.771 µM (active)	2.77 µM (inactive)	2.55 µM (inactive)	
Cc1cc(C)c(/C=C(\C(=C/c2c(C)cc(C)cc2C)[N+](=O)[O-])[N+](=O)[O-])c(C)c1	> 100 µM (inactive)	> 100 µM (inactive)			> 100 µM (inactive)	> 100 µM (inactive)		> 100 µM (inactive)	> 100 µM (inactive)			> 100 µM (inactive)	> 100 µM (inactive)	> 100 µM (inactive)	> 100 µM (inactive)	> 100 µM (inactive)	> 100 µM (inactive)	> 100 µM (inactive)	58.9 µM (inactive)	> 100 µM (inactive)
CN(C)S(=O)(=O)n1cnc(CO)c1	> 100 µM (inactive)	> 100 µM (inactive)	> 100 µM		> 100 µM (inactive)	> 100 µM (inactive)	> 100 µM (inactive)	> 100 µM (inactive)	> 100 µM (inactive)		> 100 µM (inactive)	> 100 µM (inactive)	> 100 µM (inactive)	> 100 µM (inactive)	> 100 µM (inactive)	> 100 µM (inactive)		> 100 µM (inactive)	> 100 µM (inactive)	> 100 µM (inactive)
CC1=C(Oc2ccccc2)C(CCC(=O)O)c2c(O)cc(Cl)c(O)c21 (configuration not stated)	> 100 µM (inactive)	71.9 µM (inactive)	> 100 µM	> 100 µM (inactive)	> 100 µM (inactive)	> 100 µM (inactive)		> 100 µM (inactive)		> 100 µM (inactive)	> 100 µM (inactive)	> 100 µM (inactive)	> 100 µM (inactive)		> 100 µM (inactive)	> 100 µM (inactive)		> 100 µM (inactive)		
O=C(O)CCC(=O)N1c2ccccc2CC1c1c[nH]c2ccccc12 (configuration not stated)	> 100 µM (inactive)	> 100 µM (inactive)	> 100 µM	> 100 µM (inactive)	> 100 µM (inactive)	65.6 µM (inactive)	> 100 µM (inactive)	> 100 µM (inactive)	> 100 µM (inactive)	> 100 µM (inactive)	> 100 µM (inactive)	> 100 µM (inactive)	> 100 µM (inactive)	> 100 µM (inactive)	> 100 µM (inactive)	> 100 µM (inactive)	> 100 µM (inactive)	33.2 µM (inactive)		
COc1cc(CCc2ccc(OCCN(C)C)cc2)cc(OC)c1OC	> 100 µM (inactive)	> 100 µM (inactive)	> 100 µM	33.7 µM (inactive)	84.1 µM (inactive)	> 100 µM (inactive)	79.6 µM (inactive)	64.1 µM (inactive)	33.8 µM (inactive)	> 100 µM (inactive)	> 100 µM (inactive)	> 100 µM (inactive)	> 100 µM (inactive)		> 100 µM (inactive)	> 100 µM (inactive)	> 100 µM (inactive)	49.9 µM (inactive)		
CCCCCCCCCCCCCCCCNCCCN(C)CCCN	16.7 µM (inactive)	20.5 µM (inactive)	17.2 µM	18.6 µM (inactive)		18.4 µM (inactive)	19.8 µM (inactive)	19.5 µM (inactive)	16.4 µM (inactive)	20.7 µM (inactive)	18.7 µM (inactive)	17.9 µM (inactive)	13.4 µM (inactive)	17.3 µM (inactive)	18.5 µM (inactive)	17.3 µM (inactive)	17.3 µM (inactive)	17.3 µM (inactive)		
Cc1c2ccccc2nc2[nH]c3ccncc3c12	30.7 µM (inactive)	13.9 µM (inactive)	26.5 µM	26.9 µM (inactive)	25.6 µM (inactive)	26.6 µM (inactive)		30.3 µM (inactive)	35.3 µM (inactive)	31.3 µM (inactive)	11.1 µM (inactive)	31.6 µM (inactive)	70.6 µM (inactive)	50 µM (inactive)	23.9 µM (inactive)	30.1 µM (inactive)	25.4 µM (inactive)	25.9 µM (inactive)		33 µM (inactive)
CCCc1onc(CCC(=O)N(Cc2ccccc2)Cc2ccccc2)c1CC			> 100 µM	> 100 µM (inactive)	> 100 µM (inactive)	> 100 µM (inactive)		> 100 µM (inactive)	> 100 µM (inactive)		> 100 µM (inactive)	> 100 µM (inactive)		> 100 µM (inactive)		> 100 µM (inactive)	> 100 µM (inactive)			
Cc1cc(C)nc(NS(=O)(=O)c2ccc(Nc3c4ccccc4nc4c(C(=O)N5CCN(CCOS(C)(=O)=O)CC5)ccc(Cl)c34)cc2)n1	> 100 µM (inactive)		> 100 µM	> 100 µM (inactive)	> 100 µM (inactive)	> 100 µM (inactive)	> 100 µM (inactive)	> 100 µM (inactive)	> 100 µM (inactive)	> 100 µM (inactive)	> 100 µM (inactive)	> 100 µM (inactive)	> 100 µM (inactive)	> 100 µM (inactive)		> 100 µM (inactive)	> 100 µM (inactive)	> 100 µM (inactive)		
C[C@@]12CC[C@H]3[C@@H]4CCC(=O)N[C@@]4(C)CC[C@@H]3[C@@]1(C)CC[C@H](OC(=O)Cc1ccc(N(CCCl)CCCl)cc1)C2	15.7 µM (inactive)	16.4 µM (inactive)	17.6 µM		16.8 µM (inactive)	22.7 µM (inactive)	17.2 µM (inactive)	17.9 µM (inactive)	17.3 µM (inactive)	16.7 µM (inactive)	15.8 µM (inactive)	17.5 µM (inactive)	18.4 µM (inactive)	14.1 µM (inactive)	18.2 µM (inactive)	15 µM (inactive)	15.5 µM (inactive)	17.8 µM (inactive)	11.7 µM (inactive)	
Cn1c(=O)nc2n(-c3ccc(F)cc3)c3ccccc3nc-2c1=O	18.3 µM (inactive)	16.4 µM (inactive)	16.4 µM		46.7 µM (inactive)	24.7 µM (inactive)	36.7 µM (inactive)	3.13 µM (inactive)	24.3 µM (inactive)	20.5 µM (inactive)	28.2 µM (inactive)	18.7 µM (inactive)		> 100 µM (inactive)	18.8 µM (inactive)	21.5 µM (inactive)	12.2 µM (inactive)	38.4 µM (inactive)		
C/C(=C/C(=O)N(C)c1ccccc1Cl)O[Si](C(C)C)(C(C)C)C(C)C	36.1 µM (inactive)	26.4 µM (inactive)	18.2 µM		26.8 µM (inactive)	32.4 µM (inactive)	15.8 µM (inactive)	18.2 µM (inactive)	18.2 µM (inactive)	20.7 µM (inactive)	21.8 µM (inactive)	21.8 µM (inactive)	32.8 µM (inactive)	34.2 µM (inactive)	19.4 µM (inactive)	20 µM (inactive)		19.9 µM (inactive)		32.1 µM (inactive)
CCN(CC)CCSc1nc2cccc([N+](=O)[O-])c2[nH]1	> 100 µM (inactive)	> 100 µM (inactive)	> 100 µM	> 100 µM (inactive)		> 100 µM (inactive)	> 100 µM (inactive)	> 100 µM (inactive)		> 100 µM (inactive)			> 100 µM (inactive)	> 100 µM (inactive)	> 100 µM (inactive)		> 100 µM (inactive)			
CS(=O)(=O)OCC(CCl)(CCl)CCl	> 100 µM (inactive)		> 100 µM			> 100 µM (inactive)	> 100 µM (inactive)	> 100 µM (inactive)		> 100 µM (inactive)	> 100 µM (inactive)	> 100 µM (inactive)	> 100 µM (inactive)	> 100 µM (inactive)	> 100 µM (inactive)	> 100 µM (inactive)		> 100 µM (inactive)	> 100 µM (inactive)	> 100 µM (inactive)
